Laboratory results published in US11512053B2, “Arginine methyltransferase inhibitors and uses thereof” (priority 2013, dated 2022).
Counter-ions that a name gives are not always drawn. Like-named read-outs stand apart in the source and are kept apart here.

How the values were obtained:
[1] = molecular target: full-length human PRMT1 isoform 1 (GST-tagged) (Homo sapiens, UniProt Q99873); assay: PRMT1 Biochemical Assay (3H-SAM Flashplate, peptide substrate)
Outline: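 Tritiated methyl transfer from 3H-SAM onto biotinylated peptide, captured on streptavidin Flashplates and counted. Baculovirus-expressed GST-PRMT1 and compound were preincubated 30 min at room temperature in Bicine buffer pH 7.6. Cold SAM at 300 uM final ended the reaction.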

[2] = molecular target: full-length human PRMT6 (Flag- and His-tagged) (Homo sapiens, UniProt Q96LA8); assay: PRMT6 Biochemical Assay (3H-SAM Flashplate, peptide substrate); details: read-out: Biochemical IC50 PRMT6
full-length human PRMT6 (Flag- and His-tagged), sequence (Q96LA8 with tags, fused parts or gaps): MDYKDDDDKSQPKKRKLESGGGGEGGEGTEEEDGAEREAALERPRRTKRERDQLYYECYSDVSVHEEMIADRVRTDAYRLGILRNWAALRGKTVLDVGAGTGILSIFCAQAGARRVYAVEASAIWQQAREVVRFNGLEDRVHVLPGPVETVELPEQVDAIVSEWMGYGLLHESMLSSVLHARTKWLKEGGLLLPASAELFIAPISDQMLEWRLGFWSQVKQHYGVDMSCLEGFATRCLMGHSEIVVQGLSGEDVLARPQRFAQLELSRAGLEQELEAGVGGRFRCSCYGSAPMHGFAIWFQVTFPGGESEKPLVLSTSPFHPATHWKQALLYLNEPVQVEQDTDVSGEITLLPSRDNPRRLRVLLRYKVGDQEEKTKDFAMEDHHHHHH
Outline: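 Radiometric methyltransferase readout: tritium transfer onto a biotin-tagged histone H4 36-50 peptide bearing monomethyl K44 (75 nM), captured on streptavidin Flashplates after stopping with 400 uM unlabeled SAM. Enzyme is baculovirus-expressed Flag-PRMT6-His at 1 nM, given 30 min with compound at room temperature before adding 200 nM 3H-SAM and 250 nM cold SAM (pH 7.6 Bicine, 2% DMSO). Percent inhibition relative to max/min (1 mM SAH) controls, curve-fit to IC50.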

[3] = single experiment or average of multiple experiments

full-length human PRMT1 isoform 1 (GST-tagged), sequence (Q99873 with tags, fused parts or gaps): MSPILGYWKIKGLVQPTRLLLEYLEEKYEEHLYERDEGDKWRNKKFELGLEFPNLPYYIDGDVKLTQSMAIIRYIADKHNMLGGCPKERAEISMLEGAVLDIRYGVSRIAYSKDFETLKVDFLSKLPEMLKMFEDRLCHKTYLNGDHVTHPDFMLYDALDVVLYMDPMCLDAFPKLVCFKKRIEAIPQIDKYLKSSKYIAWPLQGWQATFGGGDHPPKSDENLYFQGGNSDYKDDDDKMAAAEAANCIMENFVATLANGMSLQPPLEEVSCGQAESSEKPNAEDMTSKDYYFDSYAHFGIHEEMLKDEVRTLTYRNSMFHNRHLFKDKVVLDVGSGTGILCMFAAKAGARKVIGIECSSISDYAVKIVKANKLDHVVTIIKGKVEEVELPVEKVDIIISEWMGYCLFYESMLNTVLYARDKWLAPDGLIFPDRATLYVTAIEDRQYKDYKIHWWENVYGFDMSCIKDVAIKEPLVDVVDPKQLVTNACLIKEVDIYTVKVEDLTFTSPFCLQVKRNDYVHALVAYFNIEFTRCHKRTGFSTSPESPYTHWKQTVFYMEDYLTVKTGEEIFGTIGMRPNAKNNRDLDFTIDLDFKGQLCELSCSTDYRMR

IC50 [1] [nM]	IC50 [1, 3] [nM]	IC50 [2] [nM]	IC50 [2, 3] [nM]	Structure (SMILES)
< 100	6.49	< 100	14.7	CNCCN(C)Cc1c[nH]nc1[C@H]1CC[C@@H](N(CC(C)C)C(=O)CCOc2ccccc2)CC1 [Compound 231]
< 100	9.11	< 100	19.4	CNCCN(C)Cc1c[nH]nc1[C@H]1CC[C@H](N(CC(C)C)C(=O)CCOc2ccccc2)CC1 [Compound 232]
< 100	20.7	< 100	47.9	CNCCN(C)Cc1c[nH]nc1[C@H]1CC[C@@H](N(CC(C)C)C(=O)CCOC)CC1 [Compound 233]
< 100	16.1	< 100	84.1	CNCCN(C)Cc1c[nH]nc1[C@H]1CC[C@H](N(CC(C)C)C(=O)CCOC)CC1 [Compound 234]
< 100	25.7	< 100	34.1	CNCCN(C)Cc1c[nH]nc1[C@H]1CC[C@@H](N(CCC(C)C)C(=O)CCOC)CC1 [Compound 235]
< 100	29	< 100	62.4	CNCCN(C)Cc1c[nH]nc1[C@H]1CC[C@H](N(CCC(C)C)C(=O)CCOC)CC1 [Compound 236]
< 100	42.2	< 100	41	CNCCN(C)Cc1c[nH]nc1[C@H]1CC[C@@H](N(CCC(C)C)C(=O)CCCOC)CC1 [Compound 237]
< 100	29.6	< 100	53.9	CNCCN(C)Cc1c[nH]nc1[C@H]1CC[C@H](N(CCC(C)C)C(=O)CCCOC)CC1 [Compound 238]
< 100	6.55	< 100	7.75	CCN(C(=O)CC(C)C)[C@H]1CC[C@H](c2n[nH]cc2CN(C)CCNC)CC1 [Compound 239]
< 100	6.1	< 100	6.72	CCN(C(=O)CC(C)C)[C@H]1CC[C@@H](c2n[nH]cc2CN(C)CCNC)CC1 [Compound 240]
< 100	22.4	< 100	32.8	CNCCN(C)Cc1c[nH]nc1[C@H]1CC[C@H](N(CCCOC)C(=O)CC(C)C)CC1 [Compound 241]
< 100	28.3	< 100	41.7	CNCCN(C)Cc1c[nH]nc1[C@H]1CC[C@@H](N(CCCOC)C(=O)CC(C)C)CC1 [Compound 242]
< 100	32.4	< 100	15.1	CNCCN(C)Cc1c[nH]nc1[C@H]1CC[C@H](N(CCCOC)C(=O)CCC(C)C)CC1 [Compound 243]
< 100	39.8	< 100	54.8	CNCCN(C)Cc1c[nH]nc1[C@H]1CC[C@@H](N(CCCOC)C(=O)CCC(C)C)CC1 [Compound 244]
< 100	18.5	< 100	62.2	CNCCN(C)Cc1cnn(C)c1[C@H]1CC[C@@]2(CC1)CC(C)(C)CO2 [Compound 245, Methyl ([2-[methyl([1-methyl-5-[(5S,8S)-3,3-dimethyl-1-oxaspiro[4.5]decan-8-yl]-1H-pyrazol-4-yl]methyl)amino]ethyl])amine trifluoroacetic acid salt]
< 100	12.6	< 100	28.3	CNCCN(C)Cc1c[nH]nc1[C@H]1CC[C@@H](N(CCCOC)C(=O)CCOc2ccccc2)CC1 [Compound 246]
< 100	11.1	< 100	20.2	CNCCN(C)Cc1c[nH]nc1[C@H]1CC[C@H](N(CCCOC)C(=O)CCOc2ccccc2)CC1 [Compound 247]
< 100	13.2	< 100	32.6	CNCCN(C)Cc1c[nH]nc1[C@H]1CC[C@H](N(CC(C)C)C(=O)CCCOC)CC1 [Compound 248]
< 100	24.2	< 100	82.8	CNCCN(C)Cc1c[nH]nc1[C@H]1CC[C@H](N(CC(C)C)C(=O)CCCOC)CC1 [Compound 249]

IC50 [1] [nM]	IC50 [1, 3] [nM]	IC50 [2] [nM]	IC50 [2, 3] [nM]	Structure (SMILES)
< 100	24	< 100	14.3	CCN(C(=O)CCC(C)C)[C@H]1CC[C@H](c2n[nH]cc2CN(C)CCNC)CC1 [Compound 250]
< 100	13.1	< 100	17.1	CCN(C(=O)CCC(C)C)[C@H]1CC[C@@H](c2n[nH]cc2CN(C)CCNC)CC1 [Compound 251]
< 100	30.9	< 100	48.3	CNCCN(C)Cc1c[nH]nc1[C@H]1CC[C@H](N(CCOC)C(=O)CC(C)C)CC1 [Compound 252]
< 100	7.15	< 100	13.4	CNCCN(C)Cc1c[nH]nc1[C@H]1CC[C@]2(CCOC2(C)C)CC1 [Compound 253]
< 100	17.3	< 100	17.6	CNCCN(C)Cc1c[nH]nc1[C@H]1CC[C@H](N(CCOC)C(=O)CCC(C)C)CC1 [Compound 254]
< 100	10.2	< 100	27.6	CNCCN(C)Cc1c[nH]nc1C1CCC(C)(C)[C@@H](C(=O)OC)C1 (stereo partly shown) [Compound 255]
< 100	23.7	< 100	38.5	CNCCN(C)Cc1c[nH]nc1C1CCC(C)(C)[C@H](C(=O)OC)C1 (stereo partly shown) [Compound 256]
< 100	29.8	101 to 1000	153	CNCCN(C)Cc1cnn(C)c1[C@H]1CC[C@]2(CC1)CC(C)(C)CO2 [Compound 257]
< 100	7.59	< 100	18	CNCCN(C)Cc1c[nH]nc1[C@H]1CC[C@H](C(=O)N(C)CCOc2ccccc2)CC1 [Compound 258]
< 100	15.8	< 100	33.1	CNCCN(C)Cc1c[nH]nc1[C@H]1CC[C@@H](C(=O)N(C)CCOc2ccccc2)CC1 [Compound 259]
< 100	20.2	< 100	83.1	CNCCN(C)Cc1c[nH]nc1[C@H]1CC[C@@]2(CCC(C)(C)O2)CC1 [Compound 260]
< 100	13	< 100	31.7	CNCCN(C)Cc1c[nH]nc1[C@H]1CC[C@@H](N(CCOC)C(=O)CCC(C)C)CC1 [Compound 261]
< 100	33.7	< 100	81.2	CNCCN(C)Cc1c[nH]nc1C1CCC(C)(C)[C@H](C(=O)NCC(C)C)C1 (stereo partly shown) [Compound 262]
< 100	19.2	< 100	63.8	CNCCN(C)Cc1c[nH]nc1C1CCC(C)(C)[C@@H](C(=O)NCCC(C)C)C1 (stereo partly drawn) [Compound 263, (1S)-2,2-dimethyl-5-[4-({methyl[2-(methylamino)ethyl]amino}methyl)-1H-pyrazol-3-yl]-N-(3-methylbutyl)cyclohexane-1-carboxamide]
< 100	78	101 to 1000	133	CNCCN(C)Cc1c[nH]nc1C1CCC(C)(C)[C@H](C(=O)NCCOC)C1 (stereo partly shown) [Compound 264]
< 100	58.8	101 to 1000	174	CNCCN(C)Cc1c[nH]nc1C1CCC(C)(C)[C@H](C(=O)NCCCOC)C1 (stereo partly shown) [Compound 265]
< 100	19.3	< 100	79	CNCCN(C)Cc1c[nH]nc1C1CCC(C)(C)[C@@H](C(=O)NCC(C)C)C1 (stereo partly shown) [Compound 266]
3010 to 10000	3500	3010 to 10000	≥ 10000	CNCCN(C)Cc1c[nH]nc1C1C[C@H](C(=O)N(C)CC(C)C)C(C)(C)[C@H](C(=O)N(C)CC(C)C)C1 (stereo partly shown) [Compound 267]
